Data: ChEMBL document CHEMBL5252509, “In depth analysis of kinase cross screening data to identify chemical starting points for inhibition of the Nek family of kinases” (Medchemcomm, 2018)
Values joined by “and” are separate entries in the source; they are usually repeats but may differ in a detail not shown here. Equal values may be shown once.

Key:
[1] = target: T1, Serine/threonine-protein kinase Nek5 (Homo sapiens) (UniProt Q6P3R8); assay: Inhibition of NEK5 (unknown origin) at 1 uM relative to control
T1 sequence (whole entry): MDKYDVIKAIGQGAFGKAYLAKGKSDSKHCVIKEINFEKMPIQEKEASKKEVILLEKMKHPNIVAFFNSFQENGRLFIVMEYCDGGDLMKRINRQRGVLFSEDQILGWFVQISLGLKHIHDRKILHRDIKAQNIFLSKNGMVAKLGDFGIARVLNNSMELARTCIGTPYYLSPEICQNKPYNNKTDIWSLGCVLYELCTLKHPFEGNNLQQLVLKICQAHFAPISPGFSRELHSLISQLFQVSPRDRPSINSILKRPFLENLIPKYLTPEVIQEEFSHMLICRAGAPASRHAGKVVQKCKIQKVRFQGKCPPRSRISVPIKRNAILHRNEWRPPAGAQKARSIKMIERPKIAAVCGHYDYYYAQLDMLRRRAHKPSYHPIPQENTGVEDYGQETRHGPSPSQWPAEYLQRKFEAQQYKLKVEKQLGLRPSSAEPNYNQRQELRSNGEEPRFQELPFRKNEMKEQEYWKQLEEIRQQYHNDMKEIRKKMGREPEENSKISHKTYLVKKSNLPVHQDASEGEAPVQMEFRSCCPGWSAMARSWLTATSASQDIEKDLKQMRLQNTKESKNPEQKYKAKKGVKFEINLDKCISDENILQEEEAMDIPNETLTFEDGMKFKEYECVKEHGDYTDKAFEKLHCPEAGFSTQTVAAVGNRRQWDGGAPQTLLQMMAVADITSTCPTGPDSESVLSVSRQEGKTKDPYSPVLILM

[2] = target: Serine/threonine-protein kinase Nek6 (Homo sapiens) (UniProt Q9HC98); assay: Inhibition of NEK6 (unknown origin) at 1 uM relative to control
[3] = target: Serine/threonine-protein kinase Nek7 (Homo sapiens) (UniProt Q8TDX7); assay: Inhibition of NEK7 (unknown origin) at 1 uM relative to control
[4] = target: T2, Serine/threonine-protein kinase Nek9 (Homo sapiens) (UniProt Q8TD19); assay: Inhibition of NEK9 (unknown origin) at 1 uM relative to control
T2 sequence (whole entry): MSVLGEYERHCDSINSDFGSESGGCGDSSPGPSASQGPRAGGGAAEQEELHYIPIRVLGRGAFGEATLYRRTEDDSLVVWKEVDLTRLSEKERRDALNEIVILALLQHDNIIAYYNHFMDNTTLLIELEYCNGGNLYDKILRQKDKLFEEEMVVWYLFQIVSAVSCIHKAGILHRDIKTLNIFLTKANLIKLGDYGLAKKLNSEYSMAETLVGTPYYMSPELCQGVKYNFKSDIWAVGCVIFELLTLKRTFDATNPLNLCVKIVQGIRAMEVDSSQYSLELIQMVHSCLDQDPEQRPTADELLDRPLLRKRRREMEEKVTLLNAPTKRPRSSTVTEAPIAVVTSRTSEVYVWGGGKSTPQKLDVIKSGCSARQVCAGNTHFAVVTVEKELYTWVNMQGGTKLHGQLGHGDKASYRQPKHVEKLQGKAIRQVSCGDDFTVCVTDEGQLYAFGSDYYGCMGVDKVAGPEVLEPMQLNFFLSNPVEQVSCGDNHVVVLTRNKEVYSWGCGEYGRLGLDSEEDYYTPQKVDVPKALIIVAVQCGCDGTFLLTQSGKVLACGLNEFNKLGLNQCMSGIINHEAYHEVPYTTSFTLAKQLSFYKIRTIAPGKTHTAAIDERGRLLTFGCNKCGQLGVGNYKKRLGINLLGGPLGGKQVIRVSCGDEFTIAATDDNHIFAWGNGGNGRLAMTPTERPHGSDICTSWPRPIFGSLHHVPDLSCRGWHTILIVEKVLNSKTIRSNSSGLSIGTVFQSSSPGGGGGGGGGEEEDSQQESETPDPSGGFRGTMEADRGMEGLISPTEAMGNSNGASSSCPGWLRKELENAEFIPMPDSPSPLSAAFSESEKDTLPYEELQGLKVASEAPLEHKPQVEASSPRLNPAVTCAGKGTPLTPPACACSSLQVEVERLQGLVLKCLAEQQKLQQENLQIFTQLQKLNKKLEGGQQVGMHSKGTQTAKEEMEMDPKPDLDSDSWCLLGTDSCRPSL

[5] = target: T3, Serine/threonine-protein kinase Nek3 (Homo sapiens) (UniProt P51956); assay: Inhibition of NEK3 (unknown origin) at 10 uM relative to control
T3 sequence (whole entry): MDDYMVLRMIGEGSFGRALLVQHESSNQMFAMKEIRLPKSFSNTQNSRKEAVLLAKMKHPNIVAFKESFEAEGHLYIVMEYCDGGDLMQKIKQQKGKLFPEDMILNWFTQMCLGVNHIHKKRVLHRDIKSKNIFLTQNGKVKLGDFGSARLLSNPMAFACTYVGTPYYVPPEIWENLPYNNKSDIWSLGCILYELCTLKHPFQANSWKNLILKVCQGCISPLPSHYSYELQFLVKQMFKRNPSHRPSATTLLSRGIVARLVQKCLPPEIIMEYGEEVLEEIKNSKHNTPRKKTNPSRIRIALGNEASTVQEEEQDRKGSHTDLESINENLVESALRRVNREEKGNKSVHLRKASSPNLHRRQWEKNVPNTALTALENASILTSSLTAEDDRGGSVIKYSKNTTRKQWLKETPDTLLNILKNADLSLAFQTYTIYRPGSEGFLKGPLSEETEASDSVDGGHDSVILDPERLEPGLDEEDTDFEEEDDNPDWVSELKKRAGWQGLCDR

[6] = target: Serine/threonine-protein kinase Nek7 (Homo sapiens) (UniProt Q8TDX7); assay: Inhibition of NEK7 (unknown origin) at 10 uM relative to control

Sequence of Serine/threonine-protein kinase Nek7 (Homo sapiens) (Q8TDX7 whole entry, looked up): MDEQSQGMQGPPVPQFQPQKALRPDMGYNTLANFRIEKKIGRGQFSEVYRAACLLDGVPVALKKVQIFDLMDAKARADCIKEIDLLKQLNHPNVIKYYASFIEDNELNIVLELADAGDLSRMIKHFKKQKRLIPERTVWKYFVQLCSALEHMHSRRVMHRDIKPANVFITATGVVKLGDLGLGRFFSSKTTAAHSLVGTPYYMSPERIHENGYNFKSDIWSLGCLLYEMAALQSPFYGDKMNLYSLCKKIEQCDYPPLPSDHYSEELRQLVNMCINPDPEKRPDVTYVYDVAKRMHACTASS
Sequence of Serine/threonine-protein kinase Nek6 (Homo sapiens) (Q9HC98 whole entry): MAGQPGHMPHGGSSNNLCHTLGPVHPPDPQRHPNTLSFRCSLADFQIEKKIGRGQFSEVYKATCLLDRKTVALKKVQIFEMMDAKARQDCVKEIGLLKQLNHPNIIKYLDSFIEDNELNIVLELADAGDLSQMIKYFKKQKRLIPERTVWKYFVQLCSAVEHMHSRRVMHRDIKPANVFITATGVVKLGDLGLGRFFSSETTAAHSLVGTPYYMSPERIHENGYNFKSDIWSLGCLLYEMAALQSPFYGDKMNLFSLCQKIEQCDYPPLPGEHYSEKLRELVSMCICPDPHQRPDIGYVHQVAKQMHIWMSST

`COc1cc(Nc2ncc3c(C)nc(-c4cc5ccccc5[nH]4)n3n2)cc(OC)c1OC` was tested, and the inhibition [1] was 93.1% and 99%, the inhibition [2] was 70% and the inhibition [3] was 70%. The inhibition [4] was 70%.
Work on `COc1cccc(C2=C(Nc3cccc(Cl)c3)C(=O)NC2=O)c1` yielded an inhibition [1] of 0%, an inhibition [2] of 0% and an inhibition [3] of 5%. For the same compound, the inhibition [4] was 1%.
`O=c1[nH]ccc2nc(N[C@@H]3CCCNC3)nc(Nc3ccc(S(=O)(=O)N4CCOCC4)cc3)c12` showed an inhibition [1] of 49%, an inhibition [2] of 54% and an inhibition [3] of 65%. It also gave an inhibition [4] of 86%.
For `Cn1cc(-c2ccc3c(c2)CCN3C(=O)Cc2cccc(F)c2)c2c(N)ncnc21`, the inhibition [1] was 28%, the inhibition [2] was 0% and the inhibition [3] was 0%. For the same compound, the inhibition [4] was 0%.
Work on `CC(C)Oc1ccc2c(-c3ccnc(Nc4ccc(N5CCN(C)CC5)cc4)n3)cnn2n1` yielded an inhibition [1] of 0%, an inhibition [2] of 6.3% and an inhibition [3] of 7.4%. It also gave an inhibition [4] of 7.1%.
For `Nc1ncc(-c2cccnc2)c2scc(-c3ccc4c(c3)CCN4C(=O)Cc3ccccc3)c12`, the inhibition [1] was 22%, the inhibition [2] was 8% and the inhibition [3] was 19%. It also gave an inhibition [4] of 28%.
`COc1ccc(Nc2ncc(C#N)c(Nc3ccccc3C(N)=O)n2)cc1N1CCN(C)CC1` was tested, and the inhibition [1] was 0%, the inhibition [2] was 0.1% and the inhibition [3] was 2.6%. It also gave an inhibition [4] of 1.8%.
Work on `Cc1cc(NC(=O)c2cccc(NC(=O)/C=C/CN(C)C)c2)ccc1Nc1nccc(-c2cccnc2)n1` yielded a % control [5] of 73% and a % control [6] of 100%.
`Fc1cc(-c2cc[nH]/c(=N/c3ccc(-n4cnc(N5CCOCC5)n4)cc3)n2)cc(N2CCOCC2)c1` gave a % control [5] of 0.8% and a % control [6] of 45%.
Work on `Cc1ccc(NC(=O)c2ccc(NC(=O)/C=C/CN(C)C)cc2)cc1Nc1nccc(-c2cccnc2)n1` yielded a % control [5] of 99% and a % control [6] of 20%.
`O=S(=O)(c1ccc(-c2ccnc3[nH]ccc23)cc1)N1CCCC1` was tested, and the inhibition [1] was 31%, the inhibition [2] was 0% and the inhibition [3] was 20%. It also gave an inhibition [4] of 28%.
`COc1cccc(C2=C(Nc3ccc(Cl)c(C(=O)O)c3)C(=O)NC2=O)c1` showed an inhibition [1] of 3%, an inhibition [2] of 0% and an inhibition [3] of 0%. It also gave an inhibition [4] of 0%.
`Cn1cc(-c2ccc3c(c2)CCN3C(=O)Cc2cccc(C(F)(F)F)c2)c2c(N)ncnc21` gave an inhibition [1] of 0%, an inhibition [2] of 0% and an inhibition [3] of 11%. The inhibition [4] was 8%.
Work on `Cn1cc(-c2ccc3c(c2)CCN3C(=O)Cc2cccc(Cl)c2)c2c(N)ncnc21` yielded an inhibition [1] of 32%, an inhibition [2] of 11% and an inhibition [3] of 0%. The inhibition [4] was 18%.
With `NCCNS(=O)(=O)c1ccc(-c2ccnc3[nH]ccc23)cc1` the inhibition [1] was 44%, the inhibition [2] was 4% and the inhibition [3] was 0%. It also gave an inhibition [4] of 22%.
For `Cn1cc(-c2ccc3c(c2)CCN3C(=O)Cc2cc(F)cc(F)c2F)c2c(N)ncnc21`, the inhibition [1] was 8%, the inhibition [2] was 18% and the inhibition [3] was 0%. For the same compound, the inhibition [4] was 8%.
`Cn1cc(-c2ccc3c(c2)CCN3C(=O)Cc2ccccc2Cl)c2c(N)ncnc21` gave an inhibition [1] of 7%, an inhibition [2] of 3% and an inhibition [3] of 17%. For the same compound, the inhibition [4] was 33%.
Work on `COc1cccc(C2=C(Nc3cccc(O)c3)C(=O)NC2=O)c1` yielded an inhibition [1] of 2%, an inhibition [2] of 0% and an inhibition [3] of 7%. For the same compound, the inhibition [4] was 15%.
`CN(C)C/C=C/C(=O)Nc1cccc(C(=O)Nc2ccc(Nc3nccc(-c4c(-c5ccccc5)nn5ccccc45)n3)cc2)c1` showed a % control [5] of 99% and a % control [6] of 100%.
`O=C1NC(=O)/C(=C/c2ccc3nccc(-c4ccncc4)c3c2)S1` was tested, and the % control [5] was 77% and the % control [6] was 88%.
`COc1ccc(C2=C(Nc3cccc(C(=O)O)c3)C(=O)NC2=O)cc1` was tested, and the inhibition [1] was 0%, the inhibition [2] was 13% and the inhibition [3] was 28%. It also gave an inhibition [4] of 2%.
`CN(C)C/C=C/C(=O)Nc1cccc(C(=O)Nc2ccc(Nc3nccc(/C(C#N)=C4\Nc5ccccc5S4)n3)cc2)c1` gave a % control [5] of 100% and a % control [6] of 100%.
`O=C1NC(=O)C(c2ccccc2Cl)=C1Nc1cccc(Cl)c1` gave an inhibition [1] of 7%, an inhibition [2] of 1% and an inhibition [3] of 16%. For the same compound, the inhibition [4] was 20%.
In the case of `COc1cccc(CC(=O)N2CCc3cc(-c4cn(C)c5ncnc(N)c45)ccc32)c1`, the inhibition [1] is reported as 24%, the inhibition [2] is reported as 18% and the inhibition [3] is reported as 11%. It also gave an inhibition [4] of 25%.
In the case of `Nc1nccc2scc(-c3ccc4c(c3)CCN4C(=O)Cc3ccccc3)c12`, the inhibition [1] is reported as 14%, the inhibition [2] is reported as 0% and the inhibition [3] is reported as 0%. It also gave an inhibition [4] of 18%.
`CN(C)CCNS(=O)(=O)c1ccc(-c2ccnc3[nH]ccc23)cc1` was tested, and the inhibition [1] was 1%, the inhibition [2] was 1% and the inhibition [3] was 0%. It also gave an inhibition [4] of 0%.
For `Cn1cc(-c2ccc3c(c2)CCN3C(=O)Cc2cc(F)cc(C(F)(F)F)c2)c2c(N)ncnc21`, the inhibition [1] was 0%, the inhibition [2] was 6% and the inhibition [3] was 0%. It also gave an inhibition [4] of 25%.
Compound `Cc1ccccc1CC(=O)N1CCc2cc(-c3cn(C)c4ncnc(N)c34)ccc21` has an inhibition [1] of 34%, an inhibition [2] of 0% and an inhibition [3] of 0%. The inhibition [4] was 0%.
`Cc1ccc(CC(=O)N2CCc3cc(-c4cn(C)c5ncnc(N)c45)ccc32)cc1` showed an inhibition [1] of 45%, an inhibition [2] of 19% and an inhibition [3] of 0%. The inhibition [4] was 20%.
In the case of `CC(C)c1nc(-c2cccc(NS(=O)(=O)c3c(F)cccc3F)c2F)c(-c2ccnc(Nc3ccc(N4CCOCC4)nc3)n2)s1`, the inhibition [1] is reported as 24%, the inhibition [2] is reported as 0.9% and the inhibition [3] is reported as 7.1%. The inhibition [4] was 6.4%.
For `Nc1nccc2scc(-c3ccc4c(c3)CCN4C(=O)Cc3cc(F)ccc3F)c12`, the inhibition [1] was 6%, the inhibition [2] was 0% and the inhibition [3] was 0%. It also gave an inhibition [4] of 4%.
`CS(=O)(=O)Nc1ccc(-c2ccnc3[nH]ccc23)cc1` gave an inhibition [1] of 2%, an inhibition [2] of 0% and an inhibition [3] of 10%. The inhibition [4] was 14%.
`CC(C)c1nc(-c2cccc(NS(=O)(=O)c3ccccc3)c2)c(-c2ccnc(Nc3ccc4c(c3)CN(C)CC4)n2)s1` was tested, and the inhibition [1] was 100%, the inhibition [2] was 100% and the inhibition [3] was 100%. It also gave an inhibition [4] of 49%.
`Nc1ncc(-c2cn[nH]c2)c2scc(-c3ccc4c(c3)CCN4C(=O)Cc3ccccc3)c12` gave an inhibition [1] of 21%, an inhibition [2] of 3% and an inhibition [3] of 0%. It also gave an inhibition [4] of 0%.
Compound `Cn1cc(-c2cnc(N)c3c(-c4ccc5c(c4)CCN5C(=O)Cc4ccccc4)csc23)cn1` has an inhibition [1] of 5%, an inhibition [2] of 0% and an inhibition [3] of 0%. The inhibition [4] was 0%.
Work on `c1ccc(-c2ccnc3[nH]ccc23)cc1` yielded an inhibition [1] of 8%, an inhibition [2] of 0% and an inhibition [3] of 0%. For the same compound, the inhibition [4] was 0%.
